# Test results from ChEMBL document CHEMBL1201862, “PubChem BioAssay data set” (2004).
#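 A five-concentration, 48-hour dose response in 96-well plates underlies each endpoint, interpolated linearly between surrounding concentrations. The concentration for 50% growth inhibition is given as GI50.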 The source made the active and inactive calls. Rule as the data show it: active = GI50 up to about 1.1 µM and inactive = higher.
# Assays:
# Test in all cases: inhibition of tumour cell growth, NCI panel, 48 h
# [1] = system: HCT-15
# [2] = system: UACC-62
# [3] = system: Hs-578T
# [4] = system: NCI/ADR-RES
# [5] = system: ACHN
# [6] = system: PC-3
# [7] = system: OVCAR-8
# [8] = system: LOX IMVI
# [9] = system: SK-MEL-2
# [10] = system: HCT-116
# [11] = system: SN12C
# [12] = system: SF-539
# [13] = system: SF-268
# [14] = system: CCRF-CEM
# [15] = system: RXF 393
# [16] = system: BT-549
# [17] = system: M14
# [18] = system: DU-145
# [19] = system: OVCAR-5
# [20] = system: SK-OV-3
# [21] = system: COLO 205
# [22] = system: CAKI-1
# [23] = system: HL-60
# [24] = system: SW-620
# [25] = system: T47D
# [26] = system: HCC 2998
# [27] = system: HT-29
# [28] = system: NCI-H460
# [29] = system: U-251
# [30] = system: OVCAR-4
# [31] = system: SK-MEL-5
# [32] = system: UACC-257
# [33] = system: OVCAR-3
# [34] = system: A549
# [35] = system: RPMI-8226
# [36] = system: SR
# [37] = system: K562
# [38] = system: IGROV-1
# [39] = system: UO-31
# [40] = system: MCF7
# [41] = system: NCI-H522
# [42] = system: NCI-H23
# [43] = system: HOP-92
# [44] = system: MDA-MB-435
# [45] = system: KM12
# [46] = system: TK-10
# [47] = system: EKVX
# [48] = system: HOP-62
# [49] = system: MDA-N
# [50] = system: MDA-MB-231
# [51] = system: 786-0
# [52] = system: MOLT-4
# [53] = system: NCI-H226
# [54] = system: SF-295
# [55] = system: SNB-19
compound,measurement,setting,value
NC(=O)C(=CNC(=S)c1ccncc1)C(N)=O,GI50,[1],> 100 µM
same,GI50,[2],> 100 µM (inactive)
same,GI50,[3],> 100 µM (inactive)
same,GI50,[4],> 100 µM (inactive)
same,GI50,[5],> 100 µM (inactive)
same,GI50,[6],> 100 µM (inactive)
same,GI50,[7],> 100 µM (inactive)
same,GI50,[8],> 100 µM (inactive)
same,GI50,[9],> 100 µM (inactive)
same,GI50,[10],> 100 µM (inactive)
same,GI50,[11],> 100 µM (inactive)
same,GI50,[12],> 100 µM (inactive)
same,GI50,[13],> 100 µM (inactive)
same,GI50,[14],> 100 µM (inactive)
same,GI50,[15],> 100 µM (inactive)
same,GI50,[16],> 100 µM (inactive)
same,GI50,[17],> 100 µM (inactive)
same,GI50,[18],> 100 µM (inactive)
same,GI50,[19],> 100 µM (inactive)
same,GI50,[20],> 100 µM (inactive)
same,GI50,[21],> 100 µM (inactive)
same,GI50,[22],> 100 µM (inactive)
same,GI50,[23],> 100 µM (inactive)
same,GI50,[24],> 100 µM (inactive)
same,GI50,[25],> 100 µM (inactive)
same,GI50,[26],> 100 µM (inactive)
same,GI50,[27],> 100 µM (inactive)
same,GI50,[28],> 100 µM (inactive)
same,GI50,[29],> 100 µM (inactive)
same,GI50,[30],> 100 µM (inactive)
same,GI50,[31],> 100 µM (inactive)
same,GI50,[32],> 100 µM (inactive)
same,GI50,[33],> 100 µM (inactive)
same,GI50,[34],> 100 µM (inactive)
same,GI50,[35],> 100 µM (inactive)
same,GI50,[36],> 100 µM (inactive)
same,GI50,[37],> 100 µM (inactive)
same,GI50,[38],> 100 µM (inactive)
same,GI50,[39],> 100 µM (inactive)
same,GI50,[40],> 100 µM (inactive)
same,GI50,[41],> 100 µM (inactive)
same,GI50,[42],> 100 µM (inactive)
same,GI50,[43],> 100 µM (inactive)
same,GI50,[44],> 100 µM (inactive)
same,GI50,[45],> 100 µM (inactive)
same,GI50,[46],> 100 µM (inactive)
same,GI50,[47],> 100 µM (inactive)
same,GI50,[48],> 100 µM (inactive)
same,GI50,[49],> 100 µM (inactive)
same,GI50,[50],> 100 µM (inactive)
same,GI50,[51],> 100 µM (inactive)
same,GI50,[52],> 100 µM (inactive)
same,GI50,[53],> 100 µM (inactive)
same,GI50,[54],> 100 µM (inactive)
same,GI50,[55],> 100 µM (inactive)
